# Measured values reported in ChEMBL document CHEMBL3885861, “Open TG-GATES”.
# Species on record: Rattus norvegicus
# Assay: Open TG-GATES - Regimen: Single
# Type: toxicity, organism-based, Sprague-Dawley
# Parameters: regimen Single, gender Male, age 6 weeks
# Conditions: in vivo, iv, 0 mg/kg, route intravenous injection, dose level Control; for APTT / Bas / Eos / Fbg / Hb / Ht / Lym / MCH / MCHC / MCV / Mono / Neu / PT / Plat / RBC / Ret / WBC: tissue Blood; for KIDNEY_L / KIDNEY_R / KIDNEY_TOTAL: tissue Kidney; for LIVER: tissue Liver; for A/G / ALP / ALT / AST / BUN / CRE / Ca / Cl / DBIL / GLC / IP / K / LDH / Na / PL / RALB / TBIL / TC / TG / TP / gamma-GTP: tissue Plasma
smiles,measurement,setting,value
NCCBr [BROMOETHANAMINE],TERMINAL_BW,3 h,221.8 g
same,APTT,3 h,22.1 s
same,Bas,3 h,0%
same,Eos,3 h,0.6%
same,Fbg,3 h,305.4 mg/dL
same,Hb,3 h,13.4 g/dL
same,Ht,3 h,39.5%
same,Lym,3 h,82.4%
same,MCH,3 h,22.5 pg
same,MCHC,3 h,33.9%
same,MCV,3 h,66.4 fL
same,Mono,3 h,2.2%
same,Neu,3 h,14.2%
same,PT,3 h,16.2 s
same,Plat,3 h,118.2 x10_4/uL
same,RBC,3 h,594.4 x10_4/ul
same,Ret,3 h,6.3%
same,WBC,3 h,94.3 x10_2/uL
same,KIDNEY_L,3 h,1 g
same,KIDNEY_R,3 h,1 g
same,KIDNEY_TOTAL,3 h,2 g
same,LIVER,3 h,10.5 g
same,A/G,3 h,1.2
same,ALP,3 h,1743.8 IU/L
same,ALT,3 h,43.2 IU/L
same,AST,3 h,76.2 IU/L
same,BUN,3 h,13.2 mg/dL
same,CRE,3 h,0.1 mg/dL
same,Ca,3 h,10.8 mg/dL
same,Cl,3 h,105.4 meq/L
same,DBIL,3 h,0 mg/dL
same,GLC,3 h,188.4 mg/dL
same,IP,3 h,7.5 mg/dL
same,K,3 h,4.1 meq/L
same,LDH,3 h,174.6 IU/L
same,Na,3 h,142.2 meq/L
same,PL,3 h,131.8 mg/dL
same,RALB,3 h,3 g/dL
same,TBIL,3 h,0.018 mg/dL
same,TC,3 h,70.2 mg/dL
same,TG,3 h,79.8 mg/dL
same,TP,3 h,5.4 g/dL
same,gamma-GTP,3 h,1.6 IU/L
same,TERMINAL_BW,6 h,213.6 g
same,APTT,6 h,23.7 s
same,Bas,6 h,0%
same,Eos,6 h,0.8%
same,Fbg,6 h,313.6 mg/dL
same,Hb,6 h,13.5 g/dL
same,Ht,6 h,39.2%
same,Lym,6 h,80%
same,MCH,6 h,21.6 pg
same,MCHC,6 h,34.4%
same,MCV,6 h,62.7 fL
same,Mono,6 h,3%
same,Neu,6 h,15.8%
same,PT,6 h,15.8 s
same,Plat,6 h,121.6 x10_4/uL
same,RBC,6 h,624.8 x10_4/ul
same,Ret,6 h,6.1%
same,WBC,6 h,83.9 x10_2/uL
same,KIDNEY_L,6 h,0.9 g
same,KIDNEY_R,6 h,1 g
same,KIDNEY_TOTAL,6 h,1.9 g
same,LIVER,6 h,9.2 g
same,A/G,6 h,1.1
same,ALP,6 h,1411.4 IU/L
same,ALT,6 h,39 IU/L
same,AST,6 h,71.2 IU/L
same,BUN,6 h,11 mg/dL
same,CRE,6 h,0.1 mg/dL
same,Ca,6 h,10.3 mg/dL
same,Cl,6 h,104.6 meq/L
same,DBIL,6 h,0 mg/dL
same,GLC,6 h,195.8 mg/dL
same,IP,6 h,9.7 mg/dL
same,K,6 h,4.1 meq/L
same,LDH,6 h,189.6 IU/L
same,Na,6 h,141 meq/L
same,PL,6 h,145.2 mg/dL
same,RALB,6 h,2.9 g/dL
same,TBIL,6 h,0.014 mg/dL
same,TC,6 h,87.2 mg/dL
same,TG,6 h,47.8 mg/dL
same,TP,6 h,5.4 g/dL
same,gamma-GTP,6 h,1.6 IU/L
same,TERMINAL_BW,9 h,218.3 g
same,APTT,9 h,22.5 s
same,Bas,9 h,0%
same,Eos,9 h,0.8%
same,Fbg,9 h,317.8 mg/dL
same,Hb,9 h,13.3 g/dL
same,Ht,9 h,39%
same,Lym,9 h,78.6%
same,MCH,9 h,21.3 pg
same,MCHC,9 h,34%
same,MCV,9 h,62.7 fL
same,Mono,9 h,2%
same,Neu,9 h,18%
same,PT,9 h,16.3 s
same,Plat,9 h,128.4 x10_4/uL
same,RBC,9 h,623.8 x10_4/ul
same,Ret,9 h,6.4%
same,WBC,9 h,84.9 x10_2/uL
same,KIDNEY_L,9 h,0.9 g
same,KIDNEY_R,9 h,1 g
same,KIDNEY_TOTAL,9 h,1.9 g
same,LIVER,9 h,9.1 g
same,A/G,9 h,1.2
same,ALP,9 h,1721.2 IU/L
same,ALT,9 h,33.4 IU/L
same,AST,9 h,64.6 IU/L
same,BUN,9 h,13.6 mg/dL
same,CRE,9 h,0.2 mg/dL
same,Ca,9 h,10.4 mg/dL
same,Cl,9 h,106.4 meq/L
same,DBIL,9 h,0.002 mg/dL
same,GLC,9 h,188.8 mg/dL
same,IP,9 h,9.6 mg/dL
same,K,9 h,4.2 meq/L
same,LDH,9 h,152.6 IU/L
same,Na,9 h,140.6 meq/L
same,PL,9 h,124.4 mg/dL
same,RALB,9 h,2.9 g/dL
same,TBIL,9 h,0.022 mg/dL
same,TC,9 h,68.8 mg/dL
same,TG,9 h,63.4 mg/dL
same,TP,9 h,5.4 g/dL
same,gamma-GTP,9 h,1.6 IU/L
same,TERMINAL_BW,24 h,226.9 g
same,APTT,24 h,21.5 s
same,Bas,24 h,0%
same,Eos,24 h,0.8%
same,Fbg,24 h,316.6 mg/dL
same,Hb,24 h,13.6 g/dL
same,Ht,24 h,39.1%
same,Lym,24 h,79.2%
same,MCH,24 h,21.2 pg
same,MCHC,24 h,34.7%
same,MCV,24 h,61.1 fL
same,Mono,24 h,2.6%
same,Neu,24 h,16.2%
same,PT,24 h,16.4 s
same,Plat,24 h,126.9 x10_4/uL
same,RBC,24 h,640.8 x10_4/ul
same,Ret,24 h,5.5%
same,WBC,24 h,103.5 x10_2/uL
same,KIDNEY_L,24 h,1 g
same,KIDNEY_R,24 h,1 g
same,KIDNEY_TOTAL,24 h,2 g
same,LIVER,24 h,10.4 g
same,A/G,24 h,1.1
same,ALP,24 h,1595.2 IU/L
same,ALT,24 h,41.4 IU/L
same,AST,24 h,71 IU/L
same,BUN,24 h,18 mg/dL
same,CRE,24 h,0.2 mg/dL
same,Ca,24 h,10.8 mg/dL
same,Cl,24 h,106 meq/L
same,DBIL,24 h,0 mg/dL
same,GLC,24 h,191.6 mg/dL
same,IP,24 h,6.8 mg/dL
same,K,24 h,4.9 meq/L
same,LDH,24 h,222.8 IU/L
same,Na,24 h,140.6 meq/L
same,PL,24 h,147.6 mg/dL
same,RALB,24 h,2.9 g/dL
same,TBIL,24 h,0.006 mg/dL
same,TC,24 h,75.8 mg/dL
same,TG,24 h,134.2 mg/dL
same,TP,24 h,5.5 g/dL
same,gamma-GTP,24 h,2 IU/L
